# In publication PMC11703153 (bioRxiv, 2025):
# Read-outs that look alike come from different tables or passages of the source.
# Target: T1, ChREBP (ChREBPα) (Mus musculus, UniProt Q99MZ3)
# T1 sequence (Q99MZ3 43-307): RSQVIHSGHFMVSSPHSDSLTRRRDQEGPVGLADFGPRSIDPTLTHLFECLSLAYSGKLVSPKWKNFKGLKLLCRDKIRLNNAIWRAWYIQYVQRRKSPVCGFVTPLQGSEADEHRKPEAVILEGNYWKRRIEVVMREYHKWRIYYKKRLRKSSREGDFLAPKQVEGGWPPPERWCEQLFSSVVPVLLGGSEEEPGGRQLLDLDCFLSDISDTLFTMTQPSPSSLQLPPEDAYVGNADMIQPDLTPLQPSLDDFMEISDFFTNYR
# Assay: isothermal titration calorimetry, purified refolded GSM domain, […] °C
# Assay type: binding
SMILES,Kd [µM],Kd (read-out: Kd ± SD) [µM]
"O=P(O)(O)OC[C@H]1OC(O)(COP(=O)(O)O)[C@@H](O)[C@@H]1O (stereo partly shown) [F1,6BP, fructose-1,6-bisphosphate]",–,250
"O=P(O)(O)OC[C@H]1OC(O)[C@H](O)[C@@H](O)[C@@H]1O (stereo partly shown) [G6P, glucose-6-phosphate]",–,64.3
"OC[C@H]1OC(O)[C@H](O)[C@@H](O)[C@@H]1O (stereo partly shown) [Glc, glucose]",–,270

# Continued, values first:
Kd [µM],Kd (read-out: Kd ± SD) [µM],SMILES
453,–,"O=C(CO)COP(=O)(O)O [DHAP, dihydroxyacetone phosphate]"
–,131,O=C(CO)[C@@H](O)[C@H](O)[C@H](O)COP(=O)(O)O [F6P]
–,221,"O=CC(O)COP(=O)(O)O (stereo not shown) [GA3P, glyceraldehyde-3-phosphate]"
–,17,"O=P(O)(O)OCC(O)CO (stereo not shown) [G3P, glycerol-3-phosphate]"
